Patent EP0245669B1, “Pharmaceutical preparation for preventing damage to living cells by free radicals, or for increasing the efficacy of organic sulphur compounds, and process for increasing the life span of isolated organs” (Medopharm Arzneimittelwerk Dr. Zillich GmbH & Co., priority 1986, dated 1987)
Structures can show the parent of a compound that is named as a salt.

Test system: weiblichen C3H Mäusen
Experiment: Radiation protection: survival of mice after gamma irradiation (cobalt-60) following i.p. pretreatment
Format: in vivo, Mäuse
Details: for Ueberlebensrate nach Bestrahlung mit 9 Gy / überlebten eine Bestrahlung mit 9 Gy: 10 min before 9 Gy; for Ueberlebensrate nach Bestrahlung mit 9 Gy / Ueberlebensrate nach Bestrahlung mit 10 Gy / Ueberlebensrate nach Bestrahlung mit 11 Gy / Ueberlebensrate nach Bestrahlung mit 12 Gy / Ueberlebensrate nach Bestrahlung mit 14 Gy / Ueberlebensrate nach Bestrahlung mit 13 Gy: surviving after 30 days/irradiated mice; for Ueberlebensrate nach Bestrahlung mit 10 Gy / überlebten eine Bestrahlung mit 10 Gy: 10 min before 10 Gy; for Ueberlebensrate in %: AET alone in optimal dosage, 30 days after irradiation
Text: In den nachfolgenden Beispielen wurde die synergistische Wirkung der durch die erfindungsgemässe Verwendung hergestellten pharmazeutischen Präparate mit organische Schwefelverbindungen enthaltenden Präparaten anhand des Strahlenschutzes getestet und es wurde auch die Strahlenschutzwirkung der Zinkionen enthaltenden Präparate mit bisher bekannten Strahlenschutzpräparaten an Mäusen getestet. Die Versuche wurden mit weiblichen C3H Mäusen (GL. Bomholtgard, Ry, Dänemark) durchgeführt, die 20 bis 22 g wogen. Die Mäuse wurden unter Bedingungen gehalten, wo sie so viel Standard-Nagetierfutter (Nafag Pellts) fressen und so viel Leitungswasser trinken können, wie sie wollten. Die Bestrahlung erfolgte mit Gammastrahlen aus einer Kobalt-60 Quelle. Es wurden unterschiedliche Bestrahlungen vorgenommen, und zwar mit 9 Gy, 10 Gy, 11 Gy, 12 Gy, 13 Gy und 14 Gy.
10 Minuten vor der Bestrahlung, 30 Minuten vor der Bestrahlung oder 120 Minuten vor der Bestrahlung wurde ein durch die erfindungsgemässe Verwendung hergestelltes synergistisch wirkendes pharmazeutisches Präparat, bzw. ein entsprechendes, Zinkionen enthaltendes Strahlenschutzpräparat oder ein aus dem Stand der Technik bekanntes Strahlenschutzpräparat zu Vergleichszwecken durch intraperitoneale Injektion verabreicht.
Bei der Gruppe der Mäuse zu Vergleichszwecken, die ohne Verabreichung eines Strahlenschutzpräparates bestrahlt wurden, erfolgte 10 Minuten vor der Bestrahlung die Verabreichung von destilliertem Wasser. Bei diesen unbehandelten Mäusen überlebten nur 50% der Tiere eine Bestrahlung von 8 Gy, d.h. der LD₅₀-Wert betrug 8 Gy.
Nach den Arbeitsweisen der vorangegangenen Beispiele 1 bis 4, wurden weitere Tests mit den genannten weiblichen Mäusen durchgeführt, und zwar unter Verwendung der angeführten Zinksalze. Die bei diesen Tests erzielten Ergebnisse sind in der nachfolgenden Tabelle I zusammengestellt. Für jede der angewandten Bestrahlungsstärken ist in der Rubrik "Anzahl" diejenige Anzahl der Mäuse angeführt, welche die Bestrahlung überlebten, geteilt durch die Gesamtzahl der Mäuse, welche bestrahlt wurden. Ein entsprechender Wert von 1/10 bedeutet also, dass von 10 bestrahlten Mäusen eine überlebt hatte. In der Spalte mit der Bezeichnung "Prozent", ist die Prozent-Ueberlebensrate angeführt. Bei einer überlebenden Maus pro 10 getesteten Mäusen beträgt diese Ueberlebensrate 10 %.
Zu Vergleichszwecken sind in der nachfolgenden Tabelle III die Ueberlebensraten von Mäusen zusammengestellt, die nach dem in Beispiel 5 beschriebenen Verfahren einer Vorbehandlung mit einem bekannten schwefelhaltigen Strahlenschutzmittel unterworfen worden waren. Orientierende Vorversuche hatten gezeigt, dass diese Strahlenschutzmittel bereits ihre Wirkung verloren hatten, wenn sie zwei Stunden vor der Einwirkung der Bestrahlung verabreicht worden waren. Die Bestrahlung wurde, wie aus der Tabelle ersichtlich ist, zwei Minuten nach der Verabreichung, in den meisten Fällen 10 Minuten nach der Verabreichung, aber auch 30 Minuten, bzw. 120 Minuten nach der Verabreichung durchgeführt. Die Werte deuten darauf hin, dass 30 Minuten nach der Verabreichung die Schutzwirkung schon wieder deutlich nachgelassen hat. Für jede Bestrahlungsstärke ist wiederum die Anzahl der Tiere angeführt, die nach 30 Tagen überlebt haben, geteilt durch die Gesamtzahl der Tiere, die behandelt und bestrahlt worden waren.
Anhand dieses Beispiels soll die synergistische Wirkung von Zinkionen und Schwefelverbindungen bezüglich eines Strahlenschutzes erläutert werden. Es wurde wieder in der gleichen Weise gearbeitet, wie in den vorangegangenen Beispielen 1 bis 3, bzw. 5, und es wurde auch die gleiche Art an weiblichen Mäusen getestet. Die Verabreichung der Zinkionen enthaltenden Lösung und der Lösung der Schwefelverbindung erfolgte entweder nacheinander oder gleichzeitig durch intraperitoneale Injektion.
In allen Fällen wurde die Ueberlebensrate 30 Tage nach der Einwirkung der Bestrahlung bestimmt.

[1] = comparison with the zinc compounds to be used according to the invention

Compound: Kupferaspartat [reference compound]
- Strahlenschutzwirkung (10 to 30 mg/kg body weight injected 10 min before 9 Gy, lethal dose already reached): wirkungslos

Compound: COc1ccc(CCCCNCCSS(=O)(=O)O)cc1 [reference compound]
- Synergismus mit Zinkionen (Strahlenschutz) (in combination with zinc ions and zinc complexes, procedure of Example 6): die besten Ergebnisse

Compound: N[C@@H](CC(=O)O)C(=O)[O-].[Na+] [Natriumaspartat, reference compound]
- Strahlenschutzwirkung (20 to 350 mg/kg body weight injected 10 min before 9 Gy, lethal dose already reached): wirkungslos

Compound: N[C@@H](CS)C(=O)O [Cystein, reference compound]
- Ueberlebensrate nach Bestrahlung mit 9 Gy (300 mg/kg i.p.): 0/10
- Ueberlebensrate nach Bestrahlung mit 9 Gy (600 mg/kg i.p.): 7/10
- Ueberlebensrate nach Bestrahlung mit 10 Gy (600 mg/kg i.p.): 3/10
- überlebten eine Bestrahlung mit 10 Gy (600 mg/kg): 3 von 10 Mäusen
- Ueberlebensrate nach Bestrahlung mit 9 Gy (900 mg/kg i.p.): 10/10^+
- Ueberlebensrate nach Bestrahlung mit 10 Gy (900 mg/kg i.p.): 4/10
- Ueberlebensrate nach Bestrahlung mit 11 Gy (900 mg/kg i.p., 10 min before 11 Gy): 0/10
- überlebten eine Bestrahlung mit 10 Gy (900 mg/kg): 4 von 10 Mäusen
- Ueberlebensrate nach Bestrahlung mit 10 Gy (1200 mg/kg i.p.): 9/10^+
- Ueberlebensrate nach Bestrahlung mit 11 Gy (1200 mg/kg i.p., 10 min before 11 Gy): 2/10^+
- Ueberlebensrate nach Bestrahlung mit 12 Gy (1200 mg/kg i.p., 10 min before 12 Gy): 1/10^+
- Ueberlebensrate nach Bestrahlung mit 11 Gy (1200 mg/kg i.p., 30 min before 11 Gy): 0/10
- überlebten eine Bestrahlung mit 10 Gy (1200 mg/kg): 9 von 10 Mäusen
- überlebten (11 Gy) (1200 mg/kg, 10 min before 11 Gy): zwei
- Bestrahlung mit 11 Gy überlebt (600, 900 and 1200 mg/kg, 10 min before 11 Gy): praktisch keinem der Tiere
- Strahlenschutzwirkung [1]: deutlich weniger wirksam

Compound: N[C@@H](CCC(=O)N[C@@H](CS)C(=O)NCC(=O)O)C(=O)O [L-Glutathion, reference compound]
- überlebten eine Bestrahlung mit 9 Gy (100 mg/kg body weight (lower dose)): 3 von 10 Tieren
- Ueberlebensrate nach Bestrahlung mit 9 Gy (1000 mg/kg i.p.): 3/10
- überlebten eine Bestrahlung mit 9 Gy (2000 mg/kg body weight (higher dose)): 2 von 10 Tieren
- Ueberlebensrate nach Bestrahlung mit 9 Gy (2000 mg/kg i.p.): 2/10
- Strahlenschutzwirkung [1]: deutlich weniger wirksam

Compound: NCCS [Cysteamin, β-Merkaptoäthylamin, reference compound]
- Ueberlebensrate nach Bestrahlung mit 10 Gy (75 mg/kg i.p.): 0/10
- Strahlenschutzwirkung (150 mg/kg body weight, 10 min before 11 Gy): keine Strahlenschutzwirkung
- Ueberlebensrate nach Bestrahlung mit 9 Gy (150 mg/kg i.p.): 10/10
- Ueberlebensrate nach Bestrahlung mit 10 Gy (150 mg/kg i.p.): 9/10
- Ueberlebensrate nach Bestrahlung mit 11 Gy (150 mg/kg i.p., 10 min before 11 Gy): 0/10
- Ueberlebensrate (225 mg/kg alone, injected 10 min before 13 Gy): 10%
- Ueberlebensrate nach Bestrahlung mit 14 Gy (225 mg/kg i.p., 2 min before 14 Gy): 0/10
- Ueberlebensrate nach Bestrahlung mit 10 Gy (225 mg/kg i.p.): 10/10^+
- Ueberlebensrate nach Bestrahlung mit 11 Gy (225 mg/kg i.p., 10 min before 11 Gy): 8/10^+
- Ueberlebensrate nach Bestrahlung mit 12 Gy (225 mg/kg i.p., 10 min before 12 Gy): 6/10^+
- Ueberlebensrate nach Bestrahlung mit 13 Gy (225 mg/kg i.p., 10 min before 13 Gy): 1/10^+
- Ueberlebensrate nach Bestrahlung mit 14 Gy (225 mg/kg i.p., 10 min before 14 Gy): 0/10
- Ueberlebensrate nach Bestrahlung mit 11 Gy (225 mg/kg i.p., 30 min before 11 Gy): 6/10
- Ueberlebensrate nach Bestrahlung mit 12 Gy (225 mg/kg i.p., 30 min before 12 Gy): 1/10
- Ueberlebensrate nach Bestrahlung mit 11 Gy (225 mg/kg i.p., 120 min before 11 Gy): 0/10
- überlebten eine Bestrahlung mit 11 Gy (225 mg/kg, 10 min before 11 Gy, of 10 animals tested): 8
- überlebten eine Bestrahlung mit 12 Gy (225 mg/kg, 10 min before 12 Gy, of 10 animals tested): 6
- überlebten eine Bestrahlung mit 13 Gy (225 mg/kg, 10 min before 13 Gy, of 10 animals tested): 1
- überlebten eine Bestrahlung mit 14 Gy (225 mg/kg, 10 min before 14 Gy, of 10 animals tested): keines
- überlebten eine Bestrahlung mit 11 Gy (225 mg/kg, 30 min before 11 Gy, of 10 animals tested): 6 Tiere
- überlebten eine Bestrahlung mit 12 Gy (225 mg/kg, 30 min before 12 Gy, of 10 animals tested): 1 Tier

Compound: N=C(N)SCCN [AET, S-(2-Aminoäthyl)-isothiouroniunibromid-hydrobromid, reference compound]
- Ueberlebensrate nach Bestrahlung mit 9 Gy (30 mg/kg i.p.): 1/10
- Strahlenschutzwirksamkeit (125 mg/kg body weight, 10 min before irradiation): keine Strahlenschutzwirksamkeit
- Ueberlebensrate nach Bestrahlung mit 11 Gy (125 mg/kg i.p., 10 min before 11 Gy): 0/10
- Ueberlebensrate nach Bestrahlung mit 13 Gy (125 mg/kg i.p., 10 min before 13 Gy): 0/10
- überlebte eine Bestrahlung mit 11 Gy (125 mg/kg, 10 min before 11 Gy): kein Tier
- überlebte eine Bestrahlung mit 13 Gy (125 mg/kg, 10 min before 13 Gy): kein Tier
- Ueberlebensrate nach Bestrahlung mit 13 Gy (250 mg/kg i.p., 2 min before 13 Gy): 0/10
- Ueberlebensrate nach Bestrahlung mit 11 Gy (250 mg/kg i.p., 10 min before 11 Gy): 10/10^+
- Ueberlebensrate nach Bestrahlung mit 12 Gy (250 mg/kg i.p., 10 min before 12 Gy): 9/10^+
- Ueberlebensrate nach Bestrahlung mit 13 Gy (250 mg/kg i.p., 10 min before 13 Gy): 2/10^+
- Ueberlebensrate nach Bestrahlung mit 14 Gy (250 mg/kg i.p., 10 min before 14 Gy): 0/10
- Ueberlebensrate nach Bestrahlung mit 11 Gy (250 mg/kg i.p., 30 min before 11 Gy): 10/10
- Ueberlebensrate nach Bestrahlung mit 12 Gy (250 mg/kg i.p., 30 min before 12 Gy): 2/10
- Ueberlebensrate nach Bestrahlung mit 11 Gy (250 mg/kg i.p., 120 min before 11 Gy): 0/10
- überlebten eine Bestrahlung von 11 Gy (250 mg/kg, 10 min before 11 Gy): sämtliche
- überlebten eine Bestrahlung von 12 Gy (250 mg/kg, 10 min before 12 Gy): 9 von 10 getesteten Tieren
- überlebten eine Bestrahlung von 13 Gy (250 mg/kg, 10 min before 13 Gy): 2 von 10 getesteten Tieren
- Bestrahlung von 14 Gy überlebt (250 mg/kg, 10 min before 14 Gy, 10 animals tested): von keinem der 10 getesteten Tiere
- Ueberlebensrate in % (11 Gy): 100%
- Ueberlebensrate in % (12 Gy): 90%
- Ueberlebensrate in % (13 Gy): 20%
- Ueberlebensrate in % (14 Gy): 0%
